Tests used:
Assay type in all cases: cell-based
Tel-Jak2 = molecular target: T1, Tel-Jak2 (Homo sapiens, UniProt O60674); assay: Cellular growth inhibition assay (MTT), Tel-Jak2 transformed BaF3 cell line; details: 40 hr incubation, read-out: Jak2: growth inhibitory activity (>50%) in transformed cell line Tel-Jak2
T1 construct: The regions encompassing the kinase domains of JAK2 (nucleotides 2994–3914); TEL (ETV6, human P41212) N-terminal part encoded by nucleotides 1-487 of TEL; expressed in transfected cells; host or cells: BaF3 (murine) bearing pTET-off, transfected with pTELJAK2 (pTRE2 vector); the other entry of the earlier key: ETV6 (P41212, Transcription factor ETV6)
T1 sequence (O60674 with tags, fused parts or gaps): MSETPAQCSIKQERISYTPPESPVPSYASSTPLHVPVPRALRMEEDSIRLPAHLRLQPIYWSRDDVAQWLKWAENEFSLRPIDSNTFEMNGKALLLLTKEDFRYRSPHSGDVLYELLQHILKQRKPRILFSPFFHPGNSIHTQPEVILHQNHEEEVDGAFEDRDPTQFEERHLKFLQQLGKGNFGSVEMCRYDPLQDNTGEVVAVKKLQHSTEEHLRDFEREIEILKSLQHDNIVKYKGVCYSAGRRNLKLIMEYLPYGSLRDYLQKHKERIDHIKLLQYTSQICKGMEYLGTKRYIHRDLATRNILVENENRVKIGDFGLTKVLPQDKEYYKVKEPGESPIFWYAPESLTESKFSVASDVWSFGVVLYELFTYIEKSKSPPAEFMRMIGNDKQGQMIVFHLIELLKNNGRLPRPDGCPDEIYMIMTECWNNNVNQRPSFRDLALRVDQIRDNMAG
Source text: (§1) The coding region encompassing nucleotides 1–487 of TELwas amplified by PCR using the oligonucleotides 5TEL (5′-GGAGGATCCTGATCTCTCTCGCTGTGAGAC-3′) and 3TEL (5′-AGGC GTCGACTTCTTCTTCATGGTTCTG-3′) and U937 mRNA as template. A BamHI site was present into the 5TEL Primer, a SalI site was incorporated into the 3TEL primer. The regions encompassing the kinase domains of JAK2 (nucleotides 2994–3914; JAK2F 5′-ACGC GTCGACGGTGCCTTTGAAGACCGGGAT-3′; JAK2R 5′-ATAGTTTAGCGGCCGCTCAGAATGAAGGTCATTT-3′) and JAK3 (nucleotides 2520–3469; JAK3F 5′-GAAGTCGACTATGCCTGCCAAGACCCCACGATCTT-3′; JAK3R 5′-GGATCTAGACTATGAAAAGGACAGGGAGTGGTGTTT-3′) were generated by PCR using Taq DNA Polymerase (Gibco/BRL) and U937 mRNA as template. A SalI site was incorporated into the forward primer of JAK2 and JAK3, a NotI site was incorporated into the JAK2 reverse primer and a Xba I site was added to the reverse primer of JAK3.
(§2) A TEL/Jak2 fusion was generated by digestion of the TELPCR product with BamHI/SalI, digestion of the JAK2 PCR product with SalI/NotI followed by ligation and subcloning into the mammalian expression Vector pTRE 2 (Clontech) digested with BamHI-NotI (pTELJAK2). For JAK3 SalI/NotI cleaved kinase domain PCR product was ligated with BamHI/SalI cleaved TELproduct followed by ligation into BamHI/NotI cleaved pTRE2 (pTELJAK3).
(§3) The growth factor dependent myelomonocytic cell line BaF3 bearing the pTET-off plasmid (Clontech) was transfected with either pTELJAK2 or pTELJAK3 and the cells selected for factor independent growth. BaF 3 wild type cells were cultured in DMEM 10% FCS, 10% WEHI 3B conditioned medium. BaF3 TELJAK cells were cultured in DMEM 10% Tet-System Approved FBS (without WEHI 3B conditioned medium).
(§4) Cell suspensions were prepared by harvesting cells from culture. (Cells used in this test should be in later log phase growth and high viability.) Cells were diluted in correct growth medium to 1.1×final concentration (from 50000 cell/mL to 200,000 cell/mL, depending on cell line).
(§5) Compounds to be tested were added (10 μL, 10×final concentration) to a flat bottom 96-well plate. The cellular suspension (90 μL per well) was added, and the plate incubated for 40 hr at 37° C., 5% CO2. MTT (20 μL per well, 5 mg/mL in PBS) was added and the plates were returned to the incubator for a further 6 hours. Lysis buffer (100 μL per well, 10% SDS, 0.01N HCl) was added and the plate stored in the incubator overnight. The plate was then read at 590 nm.

Tel-Jak3 = molecular target: T2, Tel-Jak3 (Homo sapiens, UniProt P52333); assay: Cellular growth inhibition assay (MTT), Tel-Jak3 transformed BaF3 cell line; details: 40 hr incubation, read-out: Jak3: growth inhibitory activity (>50%) in transformed cell line Tel-Jak3
T2 construct: TEL (ETV6, human P41212) N-terminal part encoded by nucleotides 1-487 of TEL; expressed in transfected cells; host or cells: BaF3 (murine) bearing pTET-off, transfected with pTELJAK3 (pTRE2 vector); the other entry of the earlier key: ETV6 (P41212, Transcription factor ETV6)
T2 sequence (P52333 with tags, fused parts or gaps): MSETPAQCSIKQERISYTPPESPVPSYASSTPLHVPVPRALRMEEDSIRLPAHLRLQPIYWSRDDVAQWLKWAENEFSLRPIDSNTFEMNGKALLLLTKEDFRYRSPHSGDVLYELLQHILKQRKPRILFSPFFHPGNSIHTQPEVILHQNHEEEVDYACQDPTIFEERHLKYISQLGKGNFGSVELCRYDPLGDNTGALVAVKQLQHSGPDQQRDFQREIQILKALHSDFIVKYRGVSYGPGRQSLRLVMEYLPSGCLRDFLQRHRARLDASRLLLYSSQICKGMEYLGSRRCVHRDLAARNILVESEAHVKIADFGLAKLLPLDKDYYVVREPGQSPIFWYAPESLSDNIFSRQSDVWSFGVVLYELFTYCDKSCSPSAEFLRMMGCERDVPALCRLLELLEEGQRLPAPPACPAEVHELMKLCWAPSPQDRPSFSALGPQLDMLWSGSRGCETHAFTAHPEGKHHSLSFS
Source text: as §1, §2, §3, §4, §5

DU145 = assay: Cellular growth inhibition assay (MTT), DU145 cells; details: Homo sapiens, DU-145, 40 hr incubation, read-out: DU145: growth inhibitory activity
Protocol: as §4, §5

Structure (SMILES) | inhibition at 50 µM (Tel-Jak2) [%] | inhibition at 50 µM (Tel-Jak3) [%] | inhibition at 50 µM (DU145) [%]
COc1cccc([C@H](C)Nc2cncc(-c3ccc(O)c(OC)c3)n2)c1 [Chemistry 158] | > 50 | > 50 | > 50
COc1cc(-c2cncc(NCc3ccc(Cl)c(Cl)c3)n2)ccc1O [Chemistry 139] | > 50 | > 50 | < 50
COc1cc(-c2cncc(NC(C)c3ccc(C(=O)NCCN(C)C)cc3)n2)ccc1O (stereo not drawn) [Chemistry 352] | > 50 | > 50 | < 50
COc1cc(-c2cncc(NC(C)c3ccc(NCCN4CCN(C)CC4)cc3)n2)ccc1O (stereo not drawn) [Chemistry 318] | > 50 | > 50 | < 50
C[C@H](Nc1cncc(-c2ccc(NC(=O)C3CC3)cc2)n1)c1ccccc1 [Chemistry 193] | > 50 | > 50 | > 50
COc1cc(-c2cncc(NC(C)c3ccc(C#N)cc3)n2)ccc1O (stereo not drawn) [Chemistry 303] | > 50 | > 50 | < 50
COc1cc(-c2cncc(NC(C)c3ccc(-n4ccnc4)cc3)n2)ccc1O (stereo not drawn) [Chemistry 186] | > 50 | > 50 | < 50
COc1cc(-c2cncc(NC(C)c3cccc(NC(C)=O)c3)n2)ccc1O (stereo not drawn) [Chemistry 276] | > 50 | > 50 | < 50
C[C@H](Nc1cncc(-c2ccc(F)c(Cl)c2)n1)c1ccccc1 [Chemistry 174] | > 50 | > 50 | < 50
COc1cc(-c2cncc(Nc3cc(Cl)ccc3C)n2)ccc1O [Chemistry 130] | > 50 | < 50 | > 50

— patent US7122550B2, “Protein kinase inhibitors” (Cytopia Pty Ltd, priority 2002, dated 2006)
